Assay results reported in ChEMBL document CHEMBL4138233, “Purine analogs targeting the guanine riboswitch as potential antibiotics against Clostridioides difficile” (Eur J Med Chem, 2018).
≈ marks a conversion by molar mass, not a printed value. Calls of active or inactive are those of the source. The rule behind the calls is not given here.

Assays:
[1] = Binding affinity to Clostridium difficile [5'-32P]guaA riboswitch by polyacrylamide gel electrophoresis method; parameters: species or system Clostridioides difficile
Clostridioides difficile [2] = assay: Antibacterial activity against Clostridium difficile ATCC 700057 up to 5000 ug/ml by broth microdilution method; format: functional, organism-based
Clostridioides difficile [3] = assay: Antibacterial activity against Clostridium difficile ATCC 700057 by broth microdilution method; format: functional
[4] = Binding affinity to Bacillus subtilis guaA riboswitch
[5] = Binding affinity to Staphylococcus aureus [5'-32P]guaA riboswitch by polyacrylamide gel electrophoresis method

**Q.** With Nc1nc(O)c2ncn(Cc3ccccc3)c2n1 as the molecule, how does the Kd [1] read?
**A.** > 1000 µM

**Q.** And the Activity (Clostridioides difficile [2])?
**A.** inactive

**Q.** Which MIC (Clostridioides difficile [3]) does the source give for CCCCNc1nc(N)nc2[nH]cnc12 here?
**A.** 313 µg/mL (≈ 1.52 mM)

**Q.** What about the Kd [1] of the same molecule?
**A.** 12.3 µM

**Q.** What does the source list for Nc1nc2[nH]cnc2c(=O)[nH]1 [GUANINE]?
**A.** Kd [1]: 0.002 µM; Kd [4]: 0.005 µM

**Q.** What does the source list for CNC(=O)Nc1nc2[nH]cnc2c(=O)[nH]1?
**A.** Kd [1]: > 1000 µM; Activity (Clostridioides difficile [2]): inactive

**Q.** For Nc1nc2ncsc2c(=O)[nH]1, which MIC (Clostridioides difficile [3]) is on record?
**A.** 78 µg/mL (≈ 0.464 mM)

**Q.** What about the Kd [1] of the same molecule?
**A.** > 1000 µM

**Q.** Which Kd [1] does the source give for O=c1[nH]c(NCc2ccccn2)nc2[nH]cnc12 here?
**A.** 24.4 µM

**Q.** What about the Activity (Clostridioides difficile [2]) of the same molecule?
**A.** inactive

**Q.** Which results are given for COCCCNc1nc2[nH]cnc2c(=O)[nH]1?
**A.** Kd [1]: 2.2 µM; Activity (Clostridioides difficile [2]): inactive

**Q.** Which MIC (Clostridioides difficile [3]) does the source give for O=c1[nH]c(NC2CCC2)nc2[nH]cnc12 here?
**A.** 1250 µg/mL (≈ 6.09 mM)

**Q.** What about the Kd [1] of the same molecule?
**A.** 2.4 µM

**Q.** For O=C(O)CCCC(=O)Nc1nc2[nH]cnc2c(=O)[nH]1, which Kd [1] is on record?
**A.** 0.45 µM

**Q.** What about the Activity (Clostridioides difficile [2]) of the same molecule?
**A.** inactive

**Q.** Which MIC (Clostridioides difficile [3]) does the source give for Nc1nc(NCC2CC2)c2nc[nH]c2n1 here?
**A.** 312 µg/mL (≈ 1.53 mM)

**Q.** And the Kd [1]?
**A.** 68.9 µM

**Q.** Which results are given for Nc1nc(NC2CC2)c2nc[nH]c2n1?
**A.** MIC (Clostridioides difficile [3]): 1250 µg/mL (≈ 6.57 mM); Kd [1]: 25 µM

**Q.** For O=c1[nH]c(NC2CCCCC2)nc2[nH]cnc12, which MIC (Clostridioides difficile [3]) is on record?
**A.** 78 µg/mL (≈ 0.334 mM)

**Q.** What about the Kd [1] of the same molecule?
**A.** 6.5 µM

**Q.** Which MIC (Clostridioides difficile [3]) does the source give for CN(C)C(=O)Nc1nc2[nH]cnc2c(=O)[nH]1 here?
**A.** 1250 µg/mL (≈ 5.63 mM)

**Q.** And the Kd [1]?
**A.** 16.4 µM

**Q.** With CN(C)c1nc(N)nc2[nH]cnc12 as the molecule, how does the Kd [1] read?
**A.** 48.3 µM

**Q.** And the Activity (Clostridioides difficile [2])?
**A.** inactive

**Q.** Which results are given for O=c1[nH]c(NCCc2c[nH]cn2)nc2[nH]cnc12?
**A.** MIC (Clostridioides difficile [3]): 1250 µg/mL (≈ 5.1 mM); Kd [1]: 300 µM

**Q.** What does the source list for Nc1nc(NCc2cccnc2)c2nc[nH]c2n1?
**A.** MIC (Clostridioides difficile [3]): 625 µg/mL (≈ 2.59 mM); Kd [1]: > 1000 µM

**Q.** With NCCNc1nc(N)nc2[nH]cnc12 as the molecule, how does the Kd [1] read?
**A.** > 1000 µM

**Q.** And the Activity (Clostridioides difficile [2])?
**A.** inactive

**Q.** What does the source list for COc1ccc(CNc2nc(N)nc3[nH]cnc23)cc1?
**A.** MIC (Clostridioides difficile [3]): 313 µg/mL (≈ 1.16 mM); Kd [1]: 71.3 µM

**Q.** Which MIC (Clostridioides difficile [3]) does the source give for O=C(NCCN1CCOCC1)Nc1nc2[nH]cnc2c(=O)[nH]1 here?
**A.** 1250 µg/mL (≈ 4.07 mM)

**Q.** What about the Kd [1] of the same molecule?
**A.** 27.6 µM

**Q.** For Nc1nc2nsnc2c(=O)[nH]1, which Kd [1] is on record?
**A.** > 1000 µM

**Q.** What about the Activity (Clostridioides difficile [2]) of the same molecule?
**A.** inactive

**Q.** For Nc1nc(N)c(N)c(=O)[nH]1, which Kd [5] is on record?
**A.** 0.1 µM

**Q.** With O=c1[nH]c(NCCCO)nc2[nH]cnc12 as the molecule, how does the Kd [1] read?
**A.** 9.8 µM

**Q.** What about the Activity (Clostridioides difficile [2]) of the same molecule?
**A.** inactive

**Q.** Which results are given for Nc1nc2nnccc2c(=O)[nH]1?
**A.** Kd [1]: > 1000 µM; Activity (Clostridioides difficile [2]): inactive

**Q.** Which results are given for CCCNc1nc(N)nc2[nH]cnc12?
**A.** MIC (Clostridioides difficile [3]): 625 µg/mL (≈ 3.25 mM); Kd [1]: 68.3 µM

**Q.** What does the source list for CC(=O)Nc1nc(=O)c2[nH]cnc2[nH]1?
**A.** Kd [1]: 1.05 µM; Activity (Clostridioides difficile [2]): inactive

**Q.** Which MIC (Clostridioides difficile [3]) does the source give for CCCCNc1nc(O)c2[nH]cnc2n1 here?
**A.** 625 µg/mL (≈ 3.02 mM)

**Q.** What about the Kd [1] of the same molecule?
**A.** 4 µM

**Q.** Which MIC (Clostridioides difficile [3]) does the source give for Nc1nc2snnc2c(=O)[nH]1 here?
**A.** 156 µg/mL (≈ 0.922 mM)

**Q.** And the Kd [1]?
**A.** > 1000 µM

**Q.** Which results are given for O=C(NCCO)Nc1nc2[nH]cnc2c(=O)[nH]1?
**A.** Kd [1]: 2.67 µM; Activity (Clostridioides difficile [2]): inactive

**Q.** For Nc1nc(NCc2ccccc2)c2[nH]cnc2n1, which Kd [1] is on record?
**A.** 0.93 µM

**Q.** What about the Activity (Clostridioides difficile [2]) of the same molecule?
**A.** inactive

**Q.** With Nc1nc(NCc2ccc(F)cc2)c2nc[nH]c2n1 as the molecule, how does the MIC (Clostridioides difficile [3]) read?
**A.** 313 µg/mL (≈ 1.21 mM)

**Q.** What about the Kd [1] of the same molecule?
**A.** 25.2 µM

**Q.** For O=C(Nc1nc2[nH]cnc2c(=O)[nH]1)N1CCOCC1, which Kd [1] is on record?
**A.** 1.81 µM

**Q.** What about the Activity (Clostridioides difficile [2]) of the same molecule?
**A.** inactive

**Q.** Which Kd [1] does the source give for CNc1nc2[nH]cnc2c(=O)[nH]1 here?
**A.** > 1000 µM

**Q.** What about the Activity (Clostridioides difficile [2]) of the same molecule?
**A.** inactive

**Q.** For Cn1cnc2c(O)nc(N)nc21 [9-Methylguanine], which Kd [1] is on record?
**A.** 8.1 µM

**Q.** What about the Activity (Clostridioides difficile [2]) of the same molecule?
**A.** inactive

**Q.** With NCCCNc1nc(N)nc2[nH]cnc12 as the molecule, how does the Kd [1] read?
**A.** 0.32 µM

**Q.** What about the Activity (Clostridioides difficile [2]) of the same molecule?
**A.** inactive

**Q.** Which Kd [1] does the source give for CN(C)CCNC(=O)Nc1nc2[nH]cnc2c(=O)[nH]1 here?
**A.** 2.06 µM

**Q.** And the Activity (Clostridioides difficile [2])?
**A.** inactive

**Q.** With O=C(Nc1nc2[nH]cnc2c(=O)[nH]1)N1CCCCC1 as the molecule, how does the Kd [1] read?
**A.** 29.4 µM

**Q.** And the Activity (Clostridioides difficile [2])?
**A.** inactive

**Q.** For Nc1nc(NCCCO)c2nc[nH]c2n1, which Kd [1] is on record?
**A.** 0.63 µM

**Q.** And the Activity (Clostridioides difficile [2])?
**A.** inactive

**Q.** Which results are given for O=c1[nH]c(NCCc2ccc(O)cc2)nc2[nH]cnc12?
**A.** MIC (Clostridioides difficile [3]): 1250 µg/mL (≈ 4.61 mM); Kd [1]: > 1000 µM

**Q.** Which results are given for CCC(=O)Nc1nc2[nH]cnc2c(=O)[nH]1?
**A.** Kd [1]: 0.56 µM; Activity (Clostridioides difficile [2]): inactive

**Q.** For NC(=O)Nc1nc2[nH]cnc2c(=O)[nH]1, which Kd [1] is on record?
**A.** 21 µM

**Q.** And the Activity (Clostridioides difficile [2])?
**A.** inactive

**Q.** Which MIC (Clostridioides difficile [3]) does the source give for Nc1nc(NC2CCC2)c2nc[nH]c2n1 here?
**A.** 1250 µg/mL (≈ 6.12 mM)

**Q.** What about the Kd [1] of the same molecule?
**A.** > 1000 µM

**Q.** For Nc1nc2scnc2c(=O)[nH]1, which Kd [1] is on record?
**A.** 7.4 µM

**Q.** What about the Activity (Clostridioides difficile [2]) of the same molecule?
**A.** inactive
